This passage reports EC50 and IC50 results from ChEMBL document CHEMBL5260828, “Amphiphilic glycoconjugates as potential anti-cancer chemotherapeutics” (Eur J Med Chem, 2018).

The IC50 is the concentration that inhibits the measured activity by half.

≈ marks a conversion by molar mass, not a printed value.

The first assay relates to KB. Put plainly: Cytotoxicity against human KB cells assessed as inhibition of cell growth by measuring effective dose. The note with it: read-out: ED50 (the source's name). Format: functional.
With `C/C=C(\C)C(=O)O[C@H]1[C@H](O)[C@@H](O)[C@H](O[C@@H]2[C@H]3OC(=O)CCCCCCCCC[C@H](CCCCC)O[C@@H]4O[C@H](C)[C@@H](O)[C@H](O)[C@H]4O[C@@H]4O[C@H](COC(=O)[C@@H](C)[C@H](C)O)[C@@H](O)[C@H](O)[C@H]4O[C@H](O[C@H]2C)[C@@H]3OC(=O)C(C)C)O[C@@H]1C` [ORIZABIN XIII], the EC50 came to 1 µg/mL (≈ 0.903 µM).
As for `C/C=C(\C)C(=O)O[C@H]1[C@H](O)[C@@H](O)[C@H](O[C@@H]2[C@H]3OC(=O)CCCCCCCCC[C@H](CCCCC)O[C@@H]4O[C@H](C)[C@@H](O)[C@H](O)[C@H]4O[C@@H]4O[C@H](COC(=O)[C@H](C)[C@@H](C)O)[C@@H](O)[C@H](O)[C@H]4O[C@H](O[C@H]2C)[C@@H]3OC(=O)C(C)C)O[C@@H]1C` [ORIZABIN XII], the EC50 is 1 µg/mL (≈ 0.903 µM).
On the same count and under the same terms, as for `C/C=C(\C)C(=O)O[C@H]1[C@H](O)[C@@H](O)[C@H](O[C@@H]2[C@H]3OC(=O)CCCCCCCCC[C@H](CCCCC)O[C@@H]4O[C@H](C)[C@@H](O)[C@H](O)[C@H]4O[C@@H]4O[C@H](COC(=O)[C@@H](C)CC)[C@@H](O)[C@H](O)[C@H]4O[C@H](O[C@H]2C)[C@@H]3OC(=O)[C@H](C)[C@@H](C)O)O[C@@H]1C` [ORIZABIN XIV], the figure is 1 µg/mL (≈ 0.892 µM); as for `CCCCC[C@H]1CCCCCCCCCC(=O)O[C@@H]2[C@@H](O[C@@H]3O[C@H](C)[C@@H](OC(=O)[C@@H](C)CC)[C@H](O)[C@H]3O)[C@H](C)O[C@@H](O[C@H]3[C@H](O[C@H]4[C@H](O1)O[C@H](C)[C@@H](O)[C@@H]4O)O[C@H](COC(=O)[C@@H](C)CC)[C@@H](O)[C@@H]3O)[C@@H]2OC(=O)[C@@H](C)[C@H](C)O` [ORIZABIN XIX], 1 µg/mL (≈ 0.89 µM).

The test system of another assay is P388. Put plainly: Cytotoxicity against mouse P388 cells. Format: functional, cell-based. Conditions: Mus musculus, P388; read-out: IC50.
In the case of `CO[C@@H]1[C@H](O[C@@H]2CO[C@@H](O[C@@H]3[C@@H](O)[C@H](O)CO[C@H]3N3C(=O)/C(=C(O)/C=C/C=C/C=C/C=C/C=C(Cl)/C=C/C=C/C=C/[C@@H]4O[C@H](C)C[C@@H]4Cl)C(=O)[C@@H]3CC(N)=O)[C@@H](O)[C@@H]2O)O[C@H](C)[C@H]1O`, the half-maximal inhibitory concentration (IC50) was 0.2 µg/mL (≈ 0.213 µM).
In the case of `CO[C@@H]1[C@H](O[C@@H]2CO[C@@H](O[C@@H]3[C@@H](O)[C@H](O)CO[C@H]3N3C(=O)/C(=C(O)/C=C/C=C/C=C/C=C/C=C(Cl)/C=C/C=C/[C@@H]4O[C@H](C)C[C@@H]4Cl)C(=O)[C@@H]3CC(N)=O)[C@@H](O)[C@@H]2O)O[C@H](C)[C@H]1O`, the IC50 worked out at 0.05 µg/mL (≈ 0.0547 µM).
In the case of `CO[C@@H]1[C@H](O[C@@H]2CO[C@@H](O[C@@H]3[C@@H](O)[C@H](O)CO[C@H]3N3C(=O)/C(=C(O)/C=C/C=C/C=C/C=C/C=C(Cl)/C=C/C=C/[C@H]4O[C@H](C)C[C@@H]4Cl)C(=O)[C@@H]3CC(N)=O)[C@@H](O)[C@@H]2O)O[C@H](C)[C@H]1O`, the IC50 came to 0.2 µg/mL (≈ 0.219 µM).
In the case of `C[C@@H]1C[C@H](Cl)[C@H](/C=C/C=C/C=C/C(Cl)=C/C=C/C=C/C=C/C=C/C(O)=C2\C(=O)[C@H](CC(N)=O)N([C@@H]3OC[C@@H](O)[C@H](O)[C@H]3O[C@@H]3OC[C@@H](O[C@@H]4O[C@H](C)[C@@H](O)[C@@H]4O)[C@@H](O)[C@@H]3O)C2=O)O1`, the IC50 was above 5 µg/mL.
Consider `C[C@@H]1C[C@H](Cl)[C@@H](/C(Cl)=C/C=C/C(Cl)=C/C=C/C=C/C=C/C=C/C(O)=C2\C(=O)[C@H](CC(N)=O)N([C@@H]3OC[C@@H](O)[C@H](O)[C@H]3O[C@@H]3OC[C@@H](O[C@@H]4O[C@H](C)[C@@H](O)[C@@H]4O)[C@@H](O)[C@@H]3O)C2=O)O1`, for which the IC50 amounted to 0.2 µg/mL (≈ 0.214 µM).
Consider `CO[C@@H]1[C@H](O[C@@H]2CO[C@@H](O[C@@H]3[C@@H](O)[C@H](O)CO[C@H]3N3C(=O)/C(=C(O)/C=C/C=C/C=C/C=C/C=C(Cl)/C=C/C=C(\Cl)[C@H]4O[C@H](C)C[C@@H]4Cl)C(=O)[C@@H]3CC(N)=O)[C@@H](O)[C@@H]2O)O[C@H](C)[C@H]1O`, for which the IC50 worked out at 0.2 µg/mL (≈ 0.211 µM).
